From the supplement of paper PMC10307832

How the values were obtained:
Test in all cases: relative viability (nuclei count vs DMSO), 5 days (fraction); higher = more cells survive
Masitinib = compound: Cc1ccc(NC(=O)c2ccc(CN3CCN(C)CC3)cc2)cc1Nc1nc(-c2cccnc2)cs1 [Masitinib]
Outline: (§1)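 Five library-drug doses spaced by √10 were pinned onto vehicle-anchored 1536-well plates of lung cancer cell lines that had been kept overnight at 37 °C. Cells went 5 days without medium change, then were fixed, permeabilised and Hoechst-stained together, imaged at 4× and counted by MetaXpress. Viability is the ratio of treated-well to vehicle-well nuclei, taken as a median over plates. Plates required control CV below 25% and at least one doubling.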

[1] = compound: CC1=CC(=CC=C1)NC2=NC(=CS2)C3=CC=NC=C3
Outline: as §1

Masitinib + Pemetrexed = compound: Cc1ccc(NC(=O)c2ccc(CN3CCN(C)CC3)cc2)cc1Nc1nc(-c2cccnc2)cs1 [Masitinib] + Nc1nc2[nH]cc(CCc3ccc(C(=O)N[C@@H](CCC(=O)O)C(=O)O)cc3)c2c(=O)[nH]1 [Pemetrexed] (partner 0.2 µM)
Outline: (§2)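 For relative viability, nuclei counts in treated wells were divided by those in vehicle wells. Lung cancer cell lines had been pin-tool dosed in 1536-well plates the day after seeding and cultured for 5 days, then fixed and stained in one step (final 0.05% Triton X-100, 1% formaldehyde, 1 ug/ml Hoechst) and imaged at 4×. Doses were one drug alone or a fixed anchor-drug dose plus five library-drug doses (not always all listed) in √10 steps, and values are duplicate-plate medians.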

[2] = compound: CC1=CC(=CC=C1)NC2=NC(=CS2)C3=CC=NC=C3 + COc1cccc2cc(-c3nc([C@H]4CC[C@H](C(=O)O)CC4)n4ncnc(N)c34)[nH]c12 [OSI-027] (partner 0.5 µM)
Outline: as §2

Row | Cell Line | relative viability (Masitinib; 0.01 µM) | relative viability (Masitinib; 0.03162 µM) | relative viability (Masitinib; 0.1 µM) | relative viability (Masitinib; 0.3162 µM) | relative viability (Masitinib; 1 µM) | relative viability ([1]; 0.08 µM) | relative viability ([1]; 0.253 µM) | relative viability ([1]; 0.8 µM) | relative viability ([1]; 2.53 µM) | relative viability ([1]; 8 µM) | relative viability (Masitinib + Pemetrexed; first compound 0.01 µM) | relative viability (Masitinib + Pemetrexed; first compound 0.03162 µM) | relative viability (Masitinib + Pemetrexed; first compound 0.1 µM) | relative viability (Masitinib + Pemetrexed; first compound 0.3162 µM) | relative viability (Masitinib + Pemetrexed; first compound 1 µM) | relative viability ([2]; first compound 0.253 µM) | relative viability ([2]; first compound 0.8 µM) | relative viability ([2]; first compound 2.53 µM) | relative viability ([2]; first compound 8 µM) | relative viability ([2]; first compound 0.08 µM)
1 | HCC-78 | 0.891 | 0.814 | 0.956 | 0.789 | 0.902 | 0.781 | 0.789 | 0.811 | 0.817 | 0.971 | 0.933 | 0.877 | 0.887 | 0.987 | 0.893 | 0.371 | 0.392 | 0.308 | 0.435 | 
2 | HCC-366 | 0.729 | 1.14 | 0.75 | 0.977 | 0.994 | 0.979 | 0.956 | 1.03 | 1.02 | 0.931 |  | 0.174 | 0.148 | 0.137 | 0.146 | 0.744 | 0.959 | 0.833 | 0.461 | 0.723
3 | HCC-827 | 0.868 | 1.03 | 0.888 | 0.959 | 1.01 | 0.963 | 0.982 | 0.951 | 1 | 0.7 | 0.264 | 0.278 | 0.255 | 0.185 | 0.257 | 0.755 | 0.693 | 0.809 | 0.732 | 0.702
4 | HOP-62 | 0.954 | 0.995 | 0.962 | 1.08 | 1.01 | 0.952 | 0.972 | 1.08 | 0.997 | 0.966 | 0.286 | 0.325 | 0.323 | 0.462 | 0.404 | 0.774 | 0.849 | 0.786 | 0.729 | 0.714
5 | IA-LM | 0.885 | 0.901 | 1.01 | 0.977 | 0.982 | 0.856 | 0.772 | 0.9 | 0.76 | 0.677 |  |  |  |  |  |  |  |  |  | 
6 | LC-2-ad | 0.806 | 1.01 | 0.951 | 0.966 | 0.944 | 0.877 | 0.916 | 0.967 | 0.839 | 0.785 | 0.265 | 0.29 | 0.268 | 0.248 | 0.247 |  | 0.74 | 0.79 | 0.728 | 0.785
7 | LCLC-97TM1 | 0.803 | 1.03 | 0.869 | 1.02 | 0.928 | 0.763 | 0.818 | 0.96 | 0.927 | 0.974 | 0.168 | 0.154 | 0.169 | 0.173 | 0.168 | 0.43 | 0.546 | 0.513 | 0.692 | 0.413
8 | LCLC-103H | 0.741 | 1.01 | 0.757 | 0.816 | 0.899 | 0.896 | 0.886 | 0.913 | 0.968 | 0.712 |  | 0.465 | 0.416 | 0.469 | 0.424 | 0.448 | 0.422 | 0.462 | 0.342 | 0.389
9 | LK-2 | 1.09 | 0.89 | 1.23 | 1.19 | 1.08 | 0.816 | 0.98 | 1.27 | 0.793 | 1.41 | 0.291 | 0.34 | 0.31 | 0.281 | 0.217 | 0.181 | 0.237 | 0.185 | 0.214 | 0.165
10 | LOU-NH91 | 0.839 | 0.888 | 0.925 | 0.838 | 0.904 | 0.826 | 0.849 | 0.943 | 0.905 | 0.851 | 0.363 | 0.312 | 0.402 | 0.365 | 0.376 | 0.642 | 0.651 | 0.648 | 0.711 | 0.552
11 | LU99A | 1.03 | 0.94 | 1.09 | 1.06 | 0.916 | 0.877 | 0.917 | 0.972 | 0.997 | 0.956 | 0.158 | 0.21 | 0.16 | 0.181 | 0.219 | 0.271 | 0.296 | 0.284 | 0.288 | 0.271
12 | LXF-289 | 0.806 | 0.973 | 0.941 | 1 | 1.01 | 0.942 | 0.987 | 0.974 | 0.974 | 0.915 | 0.773 | 0.973 | 0.917 | 0.971 | 0.943 | 0.786 | 0.753 | 0.729 | 0.838 | 0.794
13 | NCI-H23 | 0.888 | 0.926 | 1.03 | 0.933 | 0.916 | 0.879 | 0.808 | 1.01 | 0.835 | 0.972 | 0.795 | 0.607 | 0.699 | 0.641 | 0.626 | 0.485 | 0.654 | 0.526 | 0.555 | 0.48
14 | NCI-H322M | 0.934 | 0.948 | 0.933 | 0.897 | 0.848 | 0.819 | 0.845 | 0.948 | 1.02 | 0.961 | 0.606 | 0.594 | 0.625 | 0.615 | 0.582 | 0.508 | 0.574 | 0.519 | 0.565 | 0.418
15 | NCI-H727 | 0.947 | 0.948 | 1.08 | 0.945 | 0.92 | 0.698 | 0.737 | 0.808 | 0.791 | 0.924 |  |  |  |  |  | 0.412 | 0.597 | 0.618 | 0.568 | 
16 | NCI-H1299 | 1.06 | 1.01 | 1.05 | 1.04 | 0.984 | 0.981 | 0.997 | 0.968 | 1.02 | 0.937 |  |  |  |  |  |  |  |  |  | 
17 | NCI-H1623 | 0.982 | 0.883 | 0.894 | 0.889 | 0.905 | 0.948 | 0.886 | 0.894 | 0.81 | 0.84 |  |  |  |  |  | 0.359 | 0.391 | 0.405 | 0.384 | 0.444
18 | NCI-H1703 | 0.866 | 0.821 | 0.526 | 0.32 | 0.261 | 0.831 | 0.977 | 0.907 | 0.986 | 0.946 |  |  |  |  |  |  |  |  |  | 
